How the values were obtained:
Assay type in all cases: in vivo
Kochia (Kochia scoparia) [1] = test: Test A preemergence; settings: Bassia scoparia, pre-emergence, 240 h, preemergence, 0 to 100 scale where 0 is no effect and 100 is complete control, read-out: Kochia plant response rating; for pest or weed control at 125 g/ha: 125 g ai/ha, visual injury rating, approximately 10 d; for pest or weed control at 500 g/ha: 500 g ai/ha
In short: (§1)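 Ratings of 0 (no effect) to 100 (complete control) come from visual comparison with untreated controls roughly 10 d after treatment. Test chemicals, formulated in a non-phytotoxic solvent mixture with surfactant, were applied either as a preemergence directed soil spray on seeded soil or postemergence to one- to two-leaf plants 2 to 10 cm tall.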

[2] = system: barnyardgrass (Echinochloa crus-galli); test: Test A preemergence; settings: Echinochloa crus-galli, pre-emergence, 240 h, preemergence, 0 to 100 scale where 0 is no effect and 100 is complete control, read-out: Barnyardgrass plant response rating; for pest or weed control at 125 g/ha: 125 g ai/ha, visual injury rating, approximately 10 d; for pest or weed control at 500 g/ha: 500 g ai/ha
In short: as §1

[3] = system: pigweed (Amaranthus retroflexus); test: Test A preemergence; settings: Amaranthus retroflexus, pre-emergence, 240 h, preemergence, 0 to 100 scale where 0 is no effect and 100 is complete control, read-out: Pigweed plant response rating; for pest or weed control at 125 g/ha: 125 g ai/ha, visual injury rating, approximately 10 d; for pest or weed control at 500 g/ha: 500 g ai/ha
[4] = system: ragweed (common ragweed, Ambrosia elatior); test: Test A preemergence; settings: Ambrosia artemisiifolia, pre-emergence, 240 h, preemergence, 0 to 100 scale where 0 is no effect and 100 is complete control, read-out: Ragweed plant response rating; for pest or weed control at 125 g/ha: 125 g ai/ha, visual injury rating, approximately 10 d; for pest or weed control at 500 g/ha: 500 g ai/ha
In short: as §1

[5] = system: ryegrass, Italian (Italian ryegrass, Lolium multiflorum); test: Test A preemergence; settings: Lolium multiflorum, pre-emergence, 240 h, preemergence, 0 to 100 scale where 0 is no effect and 100 is complete control, read-out: Ryegrass, Italian plant response rating; for pest or weed control at 125 g/ha: 125 g ai/ha, visual injury rating, approximately 10 d; for pest or weed control at 500 g/ha: 500 g ai/ha
In short: as §1

[6] = system: Galium (catchweed bedstraw, Galium aparine); test: Test A postemergence; settings: Galium, post-emergence, 240 h, postemergence; for pest or weed control at 125 g/ha: 125 g ai/ha, visual injury vs untreated controls after approx. 10 d, 0 = no effect, 100 = complete control, read-out: Galium plant response rating (0 to 100 scale); for pest or weed control at 500 g/ha: 500 g ai/ha, 0 to 100 scale, 0 is no effect, 100 is complete control, read-out: Galium plant response rating
In short: as §1

Kochia (Kochia scoparia) [7] = test: Test A postemergence; settings: Bassia scoparia, post-emergence, 240 h, postemergence; for pest or weed control at 125 g/ha: 125 g ai/ha, visual injury vs untreated controls after approx. 10 d, 0 = no effect, 100 = complete control, read-out: Kochia plant response rating (0 to 100 scale); for pest or weed control at 500 g/ha: 500 g ai/ha, 0 to 100 scale, 0 is no effect, 100 is complete control, read-out: Kochia plant response rating
In short: as §1

[8] = system: barnyardgrass (Echinochloa crus-galli); test: Test A postemergence; settings: Echinochloa crus-galli, post-emergence, 240 h, postemergence; for pest or weed control at 125 g/ha: 125 g ai/ha, visual injury vs untreated controls after approx. 10 d, 0 = no effect, 100 = complete control, read-out: Barnyardgrass plant response rating (0 to 100 scale); for pest or weed control at 500 g/ha: 500 g ai/ha, 0 to 100 scale, 0 is no effect, 100 is complete control, read-out: Barnyardgrass plant response rating
In short: as §1

[9] = system: blackgrass (Alopecurus myosuroides); test: Test A postemergence; settings: Alopecurus myosuroides, post-emergence, 240 h, postemergence; for pest or weed control at 125 g/ha: 125 g ai/ha, visual injury vs untreated controls after approx. 10 d, 0 = no effect, 100 = complete control, read-out: Blackgrass plant response rating (0 to 100 scale); for pest or weed control at 500 g/ha: 500 g ai/ha, 0 to 100 scale, 0 is no effect, 100 is complete control, read-out: Blackgrass plant response rating
In short: as §1

corn (Zea mays) = test: Test A postemergence; settings: Zea mays, post-emergence, 240 h, postemergence; for plant injury at 125 g/ha: 125 g ai/ha, visual injury vs untreated controls after approx. 10 d, 0 = no effect, 100 = complete control, read-out: Corn plant response rating (0 to 100 scale); for plant injury at 500 g/ha: 500 g ai/ha, 0 to 100 scale, 0 is no effect, 100 is complete control, read-out: Corn plant response rating
In short: as §1

[10] = system: giant foxtail (Setaria faberii); test: Test A postemergence; settings: Setaria faberi, post-emergence, 240 h, postemergence; for pest or weed control at 125 g/ha: 125 g ai/ha, visual injury vs untreated controls after approx. 10 d, 0 = no effect, 100 = complete control, read-out: Foxtail, Giant plant response rating (0 to 100 scale); for pest or weed control at 500 g/ha: 500 g ai/ha, 0 to 100 scale, 0 is no effect, 100 is complete control, read-out: Foxtail, Giant plant response rating
In short: as §1

[11] = system: pigweed (Amaranthus retroflexus); test: Test A postemergence; settings: Amaranthus retroflexus, post-emergence, 240 h, postemergence; for pest or weed control at 125 g/ha: 125 g ai/ha, visual injury vs untreated controls after approx. 10 d, 0 = no effect, 100 = complete control, read-out: Pigweed plant response rating (0 to 100 scale); for pest or weed control at 500 g/ha: 500 g ai/ha, 0 to 100 scale, 0 is no effect, 100 is complete control, read-out: Pigweed plant response rating
In short: as §1

[12] = system: ragweed (common ragweed, Ambrosia elatior); test: Test A postemergence; settings: Ambrosia artemisiifolia, post-emergence, 240 h, postemergence; for pest or weed control at 125 g/ha: 125 g ai/ha, visual injury vs untreated controls after approx. 10 d, 0 = no effect, 100 = complete control, read-out: Ragweed plant response rating (0 to 100 scale); for pest or weed control at 500 g/ha: 500 g ai/ha, 0 to 100 scale, 0 is no effect, 100 is complete control, read-out: Ragweed plant response rating
In short: as §1

[13] = system: ryegrass, Italian (Italian ryegrass, Lolium multiflorum); test: Test A postemergence; settings: Lolium multiflorum, post-emergence, 240 h, postemergence; for pest or weed control at 125 g/ha: 125 g ai/ha, visual injury vs untreated controls after approx. 10 d, 0 = no effect, 100 = complete control, read-out: Ryegrass, Italian plant response rating (0 to 100 scale); for pest or weed control at 500 g/ha: 500 g ai/ha, 0 to 100 scale, 0 is no effect, 100 is complete control, read-out: Ryegrass, Italian plant response rating
In short: as §1

[14] = system: wheat (Triticum aestivum); test: Test A postemergence; settings: Triticum aestivum, post-emergence, 240 h, 125 g ai/ha, postemergence, visual injury vs untreated controls after approx. 10 d; 0 = no effect, 100 = complete control; read-out: Wheat plant response rating (0 to 100 scale)
In short: as §1

Structure (SMILES) | pest or weed control at 125 g/ha (Kochia (Kochia scoparia) [1]) [%] | pest or weed control at 500 g/ha (Kochia (Kochia scoparia) [1]) [%] | pest or weed control at 125 g/ha [2] [%] | pest or weed control at 500 g/ha [2] [%] | pest or weed control at 125 g/ha [3] [%] | pest or weed control at 500 g/ha [3] [%] | pest or weed control at 500 g/ha [4] [%] | pest or weed control at 125 g/ha [5] [%] | pest or weed control at 500 g/ha [5] [%] | pest or weed control at 125 g/ha [6] [%] | pest or weed control at 500 g/ha [6] [%] | pest or weed control at 125 g/ha (Kochia (Kochia scoparia) [7]) [%] | pest or weed control at 500 g/ha (Kochia (Kochia scoparia) [7]) [%] | pest or weed control at 125 g/ha [8] [%] | pest or weed control at 500 g/ha [8] [%] | pest or weed control at 125 g/ha [9] [%] | pest or weed control at 500 g/ha [9] [%] | plant injury at 125 g/ha (corn (Zea mays)) [%] | plant injury at 500 g/ha (corn (Zea mays)) [%] | pest or weed control at 125 g/ha [10] [%] | further results
CN1C[C@H](c2ccc(C(F)(F)F)cc2)[C@@H](C(=O)Nc2cccc(Cl)c2F)C1=O [Compound 1238] | 60 | 60 | 80 | 90 | 0 | 60 | 50 | 0 | 50 | 20 | 50 | 30 | 50 | 50 | 80 | 30 | 50 | 20 | 40 | 60 | pest or weed control at 125 g/ha [4]: 0%; pest or weed control at 500 g/ha [10]: 80%; pest or weed control at 125 g/ha [11]: 0%; pest or weed control at 500 g/ha [11]: 30%; pest or weed control at 125 g/ha [12]: 0%; pest or weed control at 500 g/ha [12]: 20%; pest or weed control at 125 g/ha [13]: 20%; pest or weed control at 500 g/ha [13]: 60%; plant injury at 125 g/ha [14]: 0%
O=C1NC[C@H](c2ccc(C(F)(F)F)cc2)C1C(=O)Nc1ccccc1CO (some centres unmarked) [Compound 1242] | 0 | 0 | 20 | 60 | 0 | 0 | 0 | 0 | 0 | 0 | 20 | 0 | 0 | 20 | 40 | 0 | 0 | 0 | 0 | 20 | pest or weed control at 125 g/ha [4]: 0%; pest or weed control at 500 g/ha [10]: 50%; pest or weed control at 125 g/ha [11]: 0%; pest or weed control at 500 g/ha [11]: 0%; pest or weed control at 125 g/ha [12]: 0%; pest or weed control at 500 g/ha [12]: 0%; pest or weed control at 125 g/ha [13]: 0%; pest or weed control at 500 g/ha [13]: 0%; plant injury at 125 g/ha [14]: 0%
Cc1cc([C@H]2CNC(=O)[C@@H]2C(=O)Nc2ccccc2C(F)(F)F)ccc1Cl [Compound 1245] | 0 | 20 | 50 | 80 | 0 | 0 | 20 | 0 | 60 | 30 | 50 | 0 | 40 | 40 | 90 | 30 | 60 | 0 | 0 | 20 | pest or weed control at 500 g/ha [10]: 60%; pest or weed control at 125 g/ha [11]: 0%; pest or weed control at 500 g/ha [11]: 0%; pest or weed control at 125 g/ha [12]: 0%; pest or weed control at 500 g/ha [12]: 50%; pest or weed control at 125 g/ha [13]: 0%; pest or weed control at 500 g/ha [13]: 0%; plant injury at 125 g/ha [14]: 0%

— patent publication US12077503B2, “Substituted cyclic amides and their use as herbicides” (FMC CORPORATION, priority 2015, dated 2024)
